The values below are quoted from earlier work in patent US6365176B1, “Nutritional supplement for patients with type 2 diabetes mellitus for lipodystrophy” (Functional Foods, Inc., priority 2000, dated 2002).

For series [1] the following is noted: doses between 200 and 1,000 μg daily.
For series [2] the following is noted: in vivo.

Take “chromium picolinate [Chromium as picolinate]”: the “fasting plasma glucose concentrations” value in series [1] is on record as “beneficial effect”.
`O=C(CO)[C@@H](O)[C@H](O)[C@H](O)CO` [Fructose]: the “glycemic index (GI)” value in series [2] is 32.
